Measurements: publication PMC12675575, “A BRET biosensor for measuring uncompetitive engagement of PRMT5 complexes in cells” (Nature Communications, 2025)
pEC50: −log10 of the molar value. Several values for one entry are separate records, joined by “and”; a condition that tells them apart may be missing. Equal values may be shown once.

Assays:
[1] = biological target: T1, PRMT7 (Homo sapiens, UniProt Q9NVM4); experiment: CBH-002 affinity curve, HEK293, PRMT7-NL fusion; assay type: cell-based; set-up: BRET, CBH-002 + DMSO / BRET, CBH-002 + GSK3326595: unit not given here; settings: for BRET, CBH-002 + DMSO / BRET, CBH-002 + GSK3326595: Figure S2C PRMT7-NL, log([CBH-002])
T1 construct: host or cells: HEK293
T1 sequence (Q9NVM4 1-692): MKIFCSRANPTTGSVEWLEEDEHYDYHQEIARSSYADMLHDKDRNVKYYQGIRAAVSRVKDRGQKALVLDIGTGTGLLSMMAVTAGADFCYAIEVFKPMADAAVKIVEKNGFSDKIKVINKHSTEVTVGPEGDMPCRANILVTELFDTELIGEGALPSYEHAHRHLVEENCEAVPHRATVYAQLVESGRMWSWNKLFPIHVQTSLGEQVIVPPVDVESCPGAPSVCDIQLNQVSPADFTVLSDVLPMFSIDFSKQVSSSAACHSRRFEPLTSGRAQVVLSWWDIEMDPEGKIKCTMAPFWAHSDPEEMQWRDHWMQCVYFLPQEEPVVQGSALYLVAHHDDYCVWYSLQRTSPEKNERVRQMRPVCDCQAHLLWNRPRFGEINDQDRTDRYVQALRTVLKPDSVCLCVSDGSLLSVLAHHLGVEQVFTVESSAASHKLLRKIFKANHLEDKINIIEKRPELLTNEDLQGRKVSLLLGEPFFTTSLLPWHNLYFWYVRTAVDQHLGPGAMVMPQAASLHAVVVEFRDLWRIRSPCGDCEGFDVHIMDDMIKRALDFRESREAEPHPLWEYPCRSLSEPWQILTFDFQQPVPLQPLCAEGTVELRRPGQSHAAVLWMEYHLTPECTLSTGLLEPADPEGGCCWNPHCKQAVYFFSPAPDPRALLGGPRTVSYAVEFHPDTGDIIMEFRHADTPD
Procedure: HEK293 cells (ATCC) were cultured in DMEM (Thermo Fisher) + 10% (v/v) FBS (Seredigm), and HCT116 cells (Horizon Discovery, #PAR-034 and #R02-033) were cultured in McCoy’s 5A (Thermo Fisher) + 10% FBS, with incubation in a humidified, 37 °C/5% CO2 incubator. Cells were split 1–3 days prior to performing experiments and used at roughly 80% confluency. […] Cells were transfected according to the manufacturer’s protocol using FuGENE HD (Promega). NanoLuc fusion DNA was diluted into Transfection Carrier DNA (Promega) in Opti-MEM at a ratio of 1:9 (mass/mass), and FuGENE HD was added at a ratio of 1:3 (μg DNA:μL lipid). For experiments using WDR77, untagged WDR77 DNA (Promega) was used in place of Carrier DNA. Formed complexes were combined with cells resuspended to a density of 2 × 10^5 cells/mL in Opti-MEM + 1% FBS at a ratio of 1:20 (vol:vol). Cells were plated into a flask and incubated at 37 °C in a humidified 5% CO2 atmosphere for 18–24 h, before being lifted and seeded into 96-well non-binding surface-treated plates (Corning). Cells were seeded at a density of 2 × 10^5 cells/mL in Opti-MEM + 1% FBS in 100 μL (96-well). The BRET probe CBH-002 was prepared first as a 100× stock in 100% DMSO (Sigma) and then diluted to a 20× stock in NanoBRET Tracer Dilution buffer (Promega). Test compounds were prepared as 1000× stocks in 100% DMSO and diluted to 10× stocks in Opti-MEM to prepare working stocks. […] NanoBRET Complete 3x Substrate was prepared by combining Nano-Glo Substrate and Extracellular NanoLuc Inhibitor in Opti-MEM, according to the manufacturer’s protocol (Promega). NanoBRET Complete 3× Substrate was added to cells and plates were measured on either a PheraSTAR FSX equipped with 450 nm (donor) and 610 nm (acceptor) filters, or a GloMAX Discover equipped with 450/8 nm BP (donor) and 600 nm LP (acceptor) filters, using a 0.3 s integration time.
EC50 values were obtained by fitting the BRET probe and compound affinity curves to a sigmoidal four-parameter fit model in Graphpad Prism:1 Y=Ymin+Ymax−Ymin/1+10^LogEC50−Xh where h is the Hill Slope.

[2] = biological target: NLuc-PRMT5 (Homo sapiens, UniProt O14744); experiment: SAM titration against CBH-002 in HEK293 cell lysate (linear range of SAM detection); assay type: binding; set-up: host or cells: HEK293 (live cells; digitonin lysate for the SAM titration); settings: for pEC50: Figure S3B; for BRET signal, CBH-002 titration (Figure S3A): Log[CBH-002]
Procedure: To determine the linear range of SAM detection, HEK293 cells expressing NLuc-PRMT5 were lysed by addition of a 10x digitonin solution (Sigma), 500 µg/mL in Opti-MEM) and treated with a 1 mM, 4-fold, 11 pt dose-response series of SAM (Sigma) and a 1 µM 2-fold, 8 pt dose-response series of CBH-002. Lysate was incubated at RT for 30 min prior to reading BRET. Data was normalized using Eq. (2) above, with BRETMIN = BRET signal at lowest [CBH-002] + 0 µM SAM, and BRETMAX = BRET signal at 1 µM CBH-002 + 1 mM SAM. Data were fit using Eq. (3), and CBH-002 EC50 was plotted against [SAM] to determine the linear range of detection.

NLuc-PRMT5, sequence (O14744 whole entry): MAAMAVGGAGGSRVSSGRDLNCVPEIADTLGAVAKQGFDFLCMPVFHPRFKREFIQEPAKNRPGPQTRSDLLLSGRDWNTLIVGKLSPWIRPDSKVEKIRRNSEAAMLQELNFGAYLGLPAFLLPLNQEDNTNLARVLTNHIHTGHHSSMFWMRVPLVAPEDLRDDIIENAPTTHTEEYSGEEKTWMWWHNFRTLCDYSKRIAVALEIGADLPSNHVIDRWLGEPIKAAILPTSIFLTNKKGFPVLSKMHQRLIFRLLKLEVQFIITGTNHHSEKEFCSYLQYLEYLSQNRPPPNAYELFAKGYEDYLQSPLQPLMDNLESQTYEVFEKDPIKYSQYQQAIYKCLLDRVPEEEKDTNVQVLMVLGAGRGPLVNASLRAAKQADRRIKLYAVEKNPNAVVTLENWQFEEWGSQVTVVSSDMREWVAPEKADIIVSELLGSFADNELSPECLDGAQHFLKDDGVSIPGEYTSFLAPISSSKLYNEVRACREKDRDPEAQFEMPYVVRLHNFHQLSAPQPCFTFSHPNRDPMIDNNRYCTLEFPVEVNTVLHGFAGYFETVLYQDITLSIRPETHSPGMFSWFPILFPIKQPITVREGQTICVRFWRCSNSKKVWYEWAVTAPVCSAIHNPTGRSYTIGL
NLuc-PRMT5, sequence (Q9BQA1 whole entry partner): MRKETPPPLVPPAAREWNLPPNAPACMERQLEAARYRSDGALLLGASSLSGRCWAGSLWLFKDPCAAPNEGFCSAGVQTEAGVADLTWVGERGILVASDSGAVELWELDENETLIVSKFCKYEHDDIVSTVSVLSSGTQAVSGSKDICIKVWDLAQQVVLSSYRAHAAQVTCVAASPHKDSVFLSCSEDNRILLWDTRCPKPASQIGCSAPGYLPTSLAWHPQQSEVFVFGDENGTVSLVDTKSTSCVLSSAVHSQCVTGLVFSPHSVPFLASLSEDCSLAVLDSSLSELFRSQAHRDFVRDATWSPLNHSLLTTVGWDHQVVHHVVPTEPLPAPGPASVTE

## O=C(CCc1ccc2n1[B-](F)(F)[N+]1=C(c3ccc[nH]3)C=CC1=C2)NCCCCC(=O)N1CCC(Nc2cc(C(=O)NC[C@H](O)CN3CCc4ccccc4C3)ncn2)CC1 [CBH-002]
[1]; uM 0.04576
  BRET, CBH-002 + DMSO: 3.118 and 3.169 and 3.222
  BRET, CBH-002 + GSK3326595: 2.264 and 3.024 and 2.623
[1]; uM 0.52288
  BRET, CBH-002 + DMSO: 4.4157 and 4.315 and 4.82
  BRET, CBH-002 + GSK3326595: 4.289 and 4.449 and 4.432
[1]; uM 1
  BRET, CBH-002 + DMSO: 6.788 and 6.4376 and 8.0011
  BRET, CBH-002 + GSK3326595: 6.64 and 6.225 and 5.521
[1]; uM -0.43136
  BRET, CBH-002 + DMSO: 2.545 and 2.3934 and 2.684
  BRET, CBH-002 + GSK3326595: 2.418 and 2.903 and 2.394
[1]; uM -0.90849
  BRET, CBH-002 + DMSO: 2.174 and 2.245 and 2.2
  BRET, CBH-002 + GSK3326595: 2.014 and 2.113 and 2.172
[1]; uM -1.20952
  BRET, CBH-002 + DMSO: 2.33 and 1.992 and 2.793
  BRET, CBH-002 + GSK3326595: 1.945 and 2.184 and 2.019
[1]; uM -1.68664
  BRET, CBH-002 + DMSO: 2.292 and 2.046 and 2.033
  BRET, CBH-002 + GSK3326595: 2.038 and 1.973 and 2.006
[1]; uM -1.98767
  BRET, CBH-002 + DMSO: 1.964 and 2.061 and 2.054
  BRET, CBH-002 + GSK3326595: 1.921 and 2.272 and 1.954
[1]; uM -2.46479
  BRET, CBH-002 + DMSO: 2.032 and 2.041 and 2.0419
  BRET, CBH-002 + GSK3326595: 2.119 and 2.05 and 2.0804
[1]; uM -2.94191
  BRET, CBH-002 + DMSO: 1.985 and 2.058 and 2.072
  BRET, CBH-002 + GSK3326595: 1.954 and 1.961 and 1.971
[1]; HEK293, PRMT7-NL
  CBH-002 engagement at PRMT7: did not show engagement
[2]; CBH-002 EC50 at [SAM] 0 uM
  pEC50: 5.97
[2]; CBH-002 EC50 at [SAM] 0.001 uM
  pEC50: 5.92
[2]; CBH-002 EC50 at [SAM] 0.004 uM
  pEC50: 6.14
[2]; CBH-002 EC50 at [SAM] 0.06 uM
  pEC50: 6.63
[2]; CBH-002 EC50 at [SAM] 250 uM
  pEC50: 8.00
[2]; CBH-002 EC50 at [SAM] 1000 uM
  pEC50: 8.00
[2]; uM 0.00, [SAM] 0 uM
  BRET signal, CBH-002 titration (Figure S3A): 59.75 and 46.60 and 39.12
[2]; uM 0.00, [SAM] 0.001 uM
  BRET signal, CBH-002 titration (Figure S3A): 52.48 and 47.57 and 38.98
[2]; uM 0.00, [SAM] 0.004 uM
  BRET signal, CBH-002 titration (Figure S3A): 78.50 and 49.28 and 41.20
[2]; uM 0.00, [SAM] 0.06 uM
  BRET signal, CBH-002 titration (Figure S3A): 102.12 and 63.12 and 56.12
[2]; uM 0.00, [SAM] 250 uM
  BRET signal, CBH-002 titration (Figure S3A): 116.71 and 100.65 and 98.69
[2]; uM 0.00, [SAM] 1000 uM
  BRET signal, CBH-002 titration (Figure S3A): 100.00
[2]; uM -0.60, [SAM] 0 uM
  BRET signal, CBH-002 titration (Figure S3A): 35.92 and 26.69 and 20.78
[2]; uM -0.60, [SAM] 0.001 uM
  BRET signal, CBH-002 titration (Figure S3A): 38.65 and 26.89 and 21.61
[2]; uM -0.60, [SAM] 0.004 uM
  BRET signal, CBH-002 titration (Figure S3A): 42.58 and 27.46 and 22.13
[2]; uM -0.60, [SAM] 250 uM
  BRET signal, CBH-002 titration (Figure S3A): 110.40 and 94.49 and 89.50
[2]; uM -0.60, [SAM] 1000 uM
  BRET signal, CBH-002 titration (Figure S3A): 106.63 and 91.94 and 90.40
[2]; uM -1.20, [SAM] 0 uM
  BRET signal, CBH-002 titration (Figure S3A): 18.29 and 13.11 and 9.32
[2]; uM -1.20, [SAM] 250 uM
  BRET signal, CBH-002 titration (Figure S3A): 100.06 and 80.70 and 74.62
[2]; uM -1.20, [SAM] 1000 uM
  BRET signal, CBH-002 titration (Figure S3A): 101.04 and 80.00 and 77.33
[2]; uM -1.81, [SAM] 250 uM
  BRET signal, CBH-002 titration (Figure S3A): 80.32 and 48.77 and 48.32
[2]; uM -1.81, [SAM] 1000 uM
  BRET signal, CBH-002 titration (Figure S3A): 90.24 and 46.55 and 49.90
